Experimental data as given in ChEMBL document CHEMBL5705899 (Biochem J, 2014).
Calls of active or inactive are those of the source. The calls are words filed in the database; no cut-off is given here.

Tests used:
[1] = target: Dual specificity testis-specific protein kinase 1 (Homo sapiens) (UniProt Q15569); test: Inhibition of recombinant human N-terminal GST-tagged TESK1 (1 to 315 residues) expressed in Escherichia coli assessed as remaining activity at 1 uM using Cofilin 2 as substrate incubated for 30 mins in presence of [gamma-33P]ATP by filter binding method relative to control
[2] = target: Protein kinase C beta type (Homo sapiens) (UniProt P05771); test: Inhibition of human PKCbeta1 at 1 uM using 3xChocktide-PKC as substrate in presence of 33P-ATP by ProQinase assay
[3] = target: Tyrosine-protein kinase ITK/TSK (Homo sapiens) (UniProt Q08881); test: Inhibition of human ITK at 1 uM using polyEY as substrate in presence of 33P-ATP by ProQinase assay
[4] = target: Dual specificity tyrosine-phosphorylation-regulated kinase 1B (Homo sapiens) (UniProt Q9Y463); test: Inhibition of human DYRK1B at 1 uM using RBER-CHKtide as substrate in presence of 33P-ATP by ProQinase assay
[5] = target: Ephrin type-B receptor 1 (Homo sapiens) (UniProt P54762); test: Inhibition of human EPHB1 at 1 uM using polyEY as substrate in presence of 33P-ATP by ProQinase assay
[6] = target: Tyrosine-protein kinase HCK (Homo sapiens) (UniProt P08631); test: Inhibition of human HCK at 1 uM using polyEY as substrate in presence of 33P-ATP by ProQinase assay
[7] = target: SRSF protein kinase 1 (Homo sapiens) (UniProt Q96SB4); test: Inhibition of human SRPK1 at 1 uM using MBP as substrate in presence of 33P-ATP by ProQinase assay
[8] = target: Muscle, skeletal receptor tyrosine-protein kinase (Homo sapiens) (UniProt O15146); test: Inhibition of human MUSK at 1 uM using poly(Ala,Glu,Lys,Tyr) as substrate in presence of 33P-ATP by ProQinase assay
[9] = target: Vascular endothelial growth factor receptor 3 (Homo sapiens) (UniProt P35916); test: Inhibition of human VEGFR3 at 1 uM using polyEY as substrate in presence of 33P-ATP by ProQinase assay
[10] = target: Serine/threonine-protein kinase D2 (Homo sapiens) (UniProt Q9BZL6); test: Inhibition of human PRKD2 at 1 uM using RBER-CHKtide as substrate in presence of 33P-ATP by ProQinase assay
[11] = target: Mitogen-activated protein kinase kinase kinase kinase 2 (Homo sapiens) (UniProt Q12851); test: Inhibition of human MAP4K2 at 1 uM using 3xChocktide-PKC as substrate in presence of 33P-ATP by ProQinase assay
[12] = target: Tyrosine-protein kinase receptor TYRO3 (Homo sapiens) (UniProt Q06418); test: Inhibition of human TYRO3 at 1 uM using PolyEY as substrate in presence of 33P-ATP by ProQinase assay
[13] = target: Serine/threonine-protein kinase MRCK beta (Homo sapiens) (UniProt Q9Y5S2); test: Inhibition of human CDC42BPB at 1 uM using RB-S6P as substrate in presence of 33P-ATP by ProQinase assay
[14] = target: Serine/threonine-protein kinase DCLK2 (Homo sapiens) (UniProt Q8N568); test: Inhibition of human DCAMKL2 at 1 uM using RBER-CHKtide as substrate in presence of 33P-ATP by ProQinase assay
[15] = target: Non-receptor tyrosine-protein kinase TYK2 (Homo sapiens) (UniProt P29597); test: Inhibition of human TYK2 at 1 uM using poly(Ala,Glu,Lys,Tyr) as substrate in presence of 33P-ATP by ProQinase assay
[16] = target: Fibroblast growth factor receptor 2 (Homo sapiens) (UniProt P21802); test: Inhibition of human FGFR2 at 1 uM using polyEY as substrate in presence of 33P-ATP by ProQinase assay
[17] = target: Mitogen-activated protein kinase kinase kinase kinase 4 (Homo sapiens) (UniProt O95819); test: Inhibition of human MAP4K4 at 1 uM using casein as substrate in presence of 33P-ATP by ProQinase assay
[18] = target: Mitogen-activated protein kinase 3 (Homo sapiens) (UniProt P27361); test: Inhibition of human ERK1 at 1 uM using RBER-CHKtide as substrate in presence of 33P-ATP by ProQinase assay
[19] = target: Dual specificity tyrosine-phosphorylation-regulated kinase 3 (Homo sapiens) (UniProt O43781); test: Inhibition of human DYRK3 at 1 uM using RBER-IRStide as substrate in presence of 33P-ATP by ProQinase assay
[20] = target: Homeodomain-interacting protein kinase 2 (Homo sapiens) (UniProt Q9H2X6); test: Inhibition of human HIPK2 at 1 uM using RBER-CHKtide as substrate in presence of 33P-ATP by ProQinase assay
[21] = target: Cyclin-dependent kinase 5/CDK5 activator 1 (Homo sapiens) (UniProt Q00535+Q15078); test: Inhibition of human CDK5/p25NCK at 1 uM using RBER-CHKtide as substrate in presence of 33P-ATP by ProQinase assay; format: protein-complex assay
[22] = target: Serine/threonine-protein kinase WNK3 (Homo sapiens) (UniProt Q9BYP7); test: Inhibition of human WNK3 at 1 uM using RB-S6P as substrate in presence of 33P-ATP by ProQinase assay
[23] = species on record: Homo sapiens; test: Inhibition of human CDK1/CycA2 at 1 uM using RBER-CHKtide as substrate in presence of 33P-ATP by ProQinase assay
[24] = target: Mitogen-activated protein kinase 1 (Homo sapiens) (UniProt P28482); test: Inhibition of human ERK2 at 1 uM using RBER-CHKtide as substrate in presence of 33P-ATP by ProQinase assay
[25] = target: Serine/threonine-protein kinase pim-2 (Homo sapiens) (UniProt Q9P1W9); test: Inhibition of human PIM2 at 1 uM using RBER-GSK3 as substrate in presence of 33P-ATP by ProQinase assay
[26] = target: Serine/threonine-protein kinase 16 (Homo sapiens) (UniProt O75716); test: Inhibition of human TSF1 at 1 uM using casein as substrate in presence of 33P-ATP by ProQinase assay
[27] = tested on: PI3-kinase p110-alpha/p85-alpha (Homo sapiens), P27986+P42336 [E545K]; test: Inhibition of recombinant human N-terminal His6-tagged PI3Kalpha E545K mutant (2 to 1068 residues)/p85A (1 to 724 residues) expressed in baculovirus expression system at 1 uM using diC8 PIP2 as substrate incubated for 80 mins by ADP-Glo assay
[28] = tested on: U2OS; test: Inhibition of PI3K in human U2OS cells expressing GFP-PHAkt1 assessed as reduction in IGF-stimulated PtdIns(3,4,5)P3/PtdIns(3,4)P2 level […] at 1 uM pre incubated for 1 hr followed by IGF stimulation and measured after 15 mins by Alexa Fluor 488 staining based fluorescence microscopic analysis; format: subcellular; settings: time 1.25 hrs

Sequence of Non-receptor tyrosine-protein kinase TYK2 (Homo sapiens) (P29597 whole entry): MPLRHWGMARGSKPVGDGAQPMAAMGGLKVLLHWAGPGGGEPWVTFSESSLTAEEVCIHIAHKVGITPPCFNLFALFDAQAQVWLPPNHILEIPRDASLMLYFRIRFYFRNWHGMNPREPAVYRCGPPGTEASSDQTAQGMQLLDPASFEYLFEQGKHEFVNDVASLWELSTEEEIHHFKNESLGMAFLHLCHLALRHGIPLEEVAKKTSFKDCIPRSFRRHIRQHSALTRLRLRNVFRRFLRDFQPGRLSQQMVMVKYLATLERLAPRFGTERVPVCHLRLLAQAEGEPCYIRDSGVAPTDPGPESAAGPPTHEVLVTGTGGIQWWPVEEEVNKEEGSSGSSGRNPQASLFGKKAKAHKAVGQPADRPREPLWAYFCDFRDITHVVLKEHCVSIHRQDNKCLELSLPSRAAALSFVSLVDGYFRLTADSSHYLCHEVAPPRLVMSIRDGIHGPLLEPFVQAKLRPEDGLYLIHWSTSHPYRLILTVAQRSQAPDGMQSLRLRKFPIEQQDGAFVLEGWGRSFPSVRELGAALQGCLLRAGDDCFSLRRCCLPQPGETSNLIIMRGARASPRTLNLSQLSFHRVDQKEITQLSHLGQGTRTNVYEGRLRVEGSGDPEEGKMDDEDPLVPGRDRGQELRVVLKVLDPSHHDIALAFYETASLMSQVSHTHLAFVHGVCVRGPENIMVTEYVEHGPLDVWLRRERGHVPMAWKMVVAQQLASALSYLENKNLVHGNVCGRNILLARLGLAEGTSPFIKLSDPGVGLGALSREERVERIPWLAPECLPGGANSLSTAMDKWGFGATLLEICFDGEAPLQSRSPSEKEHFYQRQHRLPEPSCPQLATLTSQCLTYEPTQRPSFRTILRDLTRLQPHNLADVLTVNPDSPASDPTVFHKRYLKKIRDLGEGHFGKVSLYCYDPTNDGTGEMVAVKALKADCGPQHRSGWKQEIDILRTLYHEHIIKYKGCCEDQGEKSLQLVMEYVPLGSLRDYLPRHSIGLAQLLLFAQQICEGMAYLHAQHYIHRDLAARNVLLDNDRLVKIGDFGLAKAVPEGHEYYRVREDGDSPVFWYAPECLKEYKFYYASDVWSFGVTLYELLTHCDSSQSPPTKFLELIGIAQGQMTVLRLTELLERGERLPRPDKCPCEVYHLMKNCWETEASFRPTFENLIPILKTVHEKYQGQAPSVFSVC
Sequence of Cyclin-dependent kinase 5/CDK5 activator 1 (Homo sapiens) (Q00535 whole entry): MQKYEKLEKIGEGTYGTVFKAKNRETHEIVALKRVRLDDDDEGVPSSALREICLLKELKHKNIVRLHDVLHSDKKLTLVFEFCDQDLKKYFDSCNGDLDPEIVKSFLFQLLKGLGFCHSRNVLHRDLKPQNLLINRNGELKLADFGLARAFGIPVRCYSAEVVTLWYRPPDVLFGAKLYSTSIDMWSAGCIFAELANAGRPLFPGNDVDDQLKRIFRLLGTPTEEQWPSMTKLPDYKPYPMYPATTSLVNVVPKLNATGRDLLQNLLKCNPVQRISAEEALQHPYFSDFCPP
Sequence of Cyclin-dependent kinase 5/CDK5 activator 1 (Homo sapiens) (Q15078 99-307 partner limits assumed): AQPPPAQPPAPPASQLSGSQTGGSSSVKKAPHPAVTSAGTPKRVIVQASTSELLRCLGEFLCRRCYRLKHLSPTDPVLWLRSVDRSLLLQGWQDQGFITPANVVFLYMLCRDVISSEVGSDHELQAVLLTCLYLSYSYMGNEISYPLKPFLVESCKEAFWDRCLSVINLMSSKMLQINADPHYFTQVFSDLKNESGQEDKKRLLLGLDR
Sequence of Dual specificity tyrosine-phosphorylation-regulated kinase 3 (Homo sapiens) (O43781 whole entry): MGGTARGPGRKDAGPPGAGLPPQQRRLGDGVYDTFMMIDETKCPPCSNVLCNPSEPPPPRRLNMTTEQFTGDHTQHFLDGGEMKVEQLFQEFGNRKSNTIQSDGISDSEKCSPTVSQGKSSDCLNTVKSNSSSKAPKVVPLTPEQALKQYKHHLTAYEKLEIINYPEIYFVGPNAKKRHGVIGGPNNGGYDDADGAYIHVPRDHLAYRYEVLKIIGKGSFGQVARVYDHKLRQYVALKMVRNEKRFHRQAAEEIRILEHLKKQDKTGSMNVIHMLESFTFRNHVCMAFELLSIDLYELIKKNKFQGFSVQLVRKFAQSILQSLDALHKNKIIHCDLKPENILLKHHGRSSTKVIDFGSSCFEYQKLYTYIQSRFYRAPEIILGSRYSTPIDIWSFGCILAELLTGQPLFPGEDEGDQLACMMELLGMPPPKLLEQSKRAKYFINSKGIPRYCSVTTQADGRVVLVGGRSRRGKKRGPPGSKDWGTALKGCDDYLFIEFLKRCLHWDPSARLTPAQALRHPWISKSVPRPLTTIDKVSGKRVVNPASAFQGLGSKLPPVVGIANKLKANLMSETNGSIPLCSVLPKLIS
Sequence of Ephrin type-B receptor 1 (Homo sapiens) (P54762 whole entry): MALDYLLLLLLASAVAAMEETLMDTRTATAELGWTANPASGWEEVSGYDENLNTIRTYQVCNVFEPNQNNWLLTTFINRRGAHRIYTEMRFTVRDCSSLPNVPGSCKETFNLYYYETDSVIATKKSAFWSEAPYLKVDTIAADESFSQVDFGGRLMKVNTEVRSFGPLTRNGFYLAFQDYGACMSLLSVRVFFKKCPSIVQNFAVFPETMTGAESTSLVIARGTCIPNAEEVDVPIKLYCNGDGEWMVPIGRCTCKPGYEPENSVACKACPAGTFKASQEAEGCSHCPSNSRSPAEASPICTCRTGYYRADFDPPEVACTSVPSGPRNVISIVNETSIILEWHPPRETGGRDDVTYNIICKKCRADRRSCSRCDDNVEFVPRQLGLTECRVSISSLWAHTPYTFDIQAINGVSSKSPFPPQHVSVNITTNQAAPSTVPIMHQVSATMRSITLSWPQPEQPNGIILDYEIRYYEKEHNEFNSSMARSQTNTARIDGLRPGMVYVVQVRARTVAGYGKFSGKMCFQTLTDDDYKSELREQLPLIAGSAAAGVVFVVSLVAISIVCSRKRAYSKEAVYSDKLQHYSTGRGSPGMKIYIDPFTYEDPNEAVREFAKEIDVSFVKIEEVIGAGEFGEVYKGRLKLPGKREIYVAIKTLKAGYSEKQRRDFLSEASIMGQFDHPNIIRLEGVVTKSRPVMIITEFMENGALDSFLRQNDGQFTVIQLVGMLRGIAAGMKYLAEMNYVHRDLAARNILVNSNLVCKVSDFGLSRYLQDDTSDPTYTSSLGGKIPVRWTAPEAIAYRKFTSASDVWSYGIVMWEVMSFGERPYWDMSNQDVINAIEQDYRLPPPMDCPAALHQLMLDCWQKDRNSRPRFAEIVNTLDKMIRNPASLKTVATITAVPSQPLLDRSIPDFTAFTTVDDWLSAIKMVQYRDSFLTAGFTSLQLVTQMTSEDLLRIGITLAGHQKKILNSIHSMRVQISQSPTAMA
Sequence of Serine/threonine-protein kinase MRCK beta (Homo sapiens) (Q9Y5S2 whole entry): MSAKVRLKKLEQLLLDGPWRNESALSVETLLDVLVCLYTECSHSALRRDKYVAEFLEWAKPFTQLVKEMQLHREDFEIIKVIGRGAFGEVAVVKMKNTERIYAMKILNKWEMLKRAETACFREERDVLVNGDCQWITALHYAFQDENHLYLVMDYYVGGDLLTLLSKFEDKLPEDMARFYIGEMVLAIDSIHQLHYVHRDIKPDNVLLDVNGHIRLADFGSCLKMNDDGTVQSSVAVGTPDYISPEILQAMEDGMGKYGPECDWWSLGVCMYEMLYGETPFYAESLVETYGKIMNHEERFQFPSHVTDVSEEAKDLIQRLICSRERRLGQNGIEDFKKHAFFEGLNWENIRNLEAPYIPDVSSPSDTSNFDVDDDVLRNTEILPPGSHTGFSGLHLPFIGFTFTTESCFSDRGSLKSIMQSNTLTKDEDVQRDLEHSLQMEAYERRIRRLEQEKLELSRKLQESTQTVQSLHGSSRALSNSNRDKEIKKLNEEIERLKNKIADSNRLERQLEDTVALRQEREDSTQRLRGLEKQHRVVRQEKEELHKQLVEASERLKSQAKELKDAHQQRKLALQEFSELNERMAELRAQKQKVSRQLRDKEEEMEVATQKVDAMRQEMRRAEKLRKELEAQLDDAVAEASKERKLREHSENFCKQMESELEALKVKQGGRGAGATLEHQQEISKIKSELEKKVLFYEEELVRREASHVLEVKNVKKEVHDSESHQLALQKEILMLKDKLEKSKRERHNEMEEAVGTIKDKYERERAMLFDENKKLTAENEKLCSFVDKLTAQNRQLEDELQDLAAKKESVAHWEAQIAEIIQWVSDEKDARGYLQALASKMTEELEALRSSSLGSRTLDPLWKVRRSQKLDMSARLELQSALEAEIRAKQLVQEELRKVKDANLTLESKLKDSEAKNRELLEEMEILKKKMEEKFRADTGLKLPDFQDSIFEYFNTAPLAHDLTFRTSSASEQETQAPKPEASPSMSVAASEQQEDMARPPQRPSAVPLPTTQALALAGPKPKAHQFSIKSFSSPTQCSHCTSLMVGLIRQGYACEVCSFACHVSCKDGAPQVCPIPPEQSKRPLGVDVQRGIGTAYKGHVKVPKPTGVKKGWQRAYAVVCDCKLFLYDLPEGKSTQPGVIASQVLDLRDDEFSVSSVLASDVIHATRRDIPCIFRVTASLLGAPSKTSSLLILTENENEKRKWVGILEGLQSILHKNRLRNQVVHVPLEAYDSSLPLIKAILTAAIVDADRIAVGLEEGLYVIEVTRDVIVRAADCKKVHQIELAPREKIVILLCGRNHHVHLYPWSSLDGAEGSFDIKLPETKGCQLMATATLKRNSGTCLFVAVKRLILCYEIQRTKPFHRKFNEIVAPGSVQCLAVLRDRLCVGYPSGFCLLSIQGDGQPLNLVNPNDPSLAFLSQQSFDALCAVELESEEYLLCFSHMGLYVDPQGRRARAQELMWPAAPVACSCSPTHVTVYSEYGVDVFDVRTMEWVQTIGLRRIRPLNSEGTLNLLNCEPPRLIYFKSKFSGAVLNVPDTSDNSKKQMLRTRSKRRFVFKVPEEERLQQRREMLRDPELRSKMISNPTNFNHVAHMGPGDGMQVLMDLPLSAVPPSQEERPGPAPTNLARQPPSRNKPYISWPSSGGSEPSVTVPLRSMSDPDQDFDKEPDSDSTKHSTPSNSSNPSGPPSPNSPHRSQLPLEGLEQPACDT

CC(C)(O)CNc1ncc(-c2ccnc(Nc3ccnc(Cl)c3)n2)c(CC2CC2)n1
Activity [1]: 95%
inhibition [2]: inactive
inhibition [3]: inactive
inhibition [4]: inactive
inhibition [5]: inactive
inhibition [6]: inactive
inhibition [7]: inactive
inhibition [8]: inactive
inhibition [9]: inactive
inhibition [10]: inactive
inhibition [11]: inactive
inhibition [12]: inactive
inhibition [13]: inactive
inhibition [14]: inactive
inhibition [15]: inactive
inhibition [16]: inactive
inhibition [17]: inactive
inhibition [18]: inactive
inhibition [19]: inactive
inhibition [20]: inactive
inhibition [21]: inactive
inhibition [22]: inactive
inhibition [23]: inactive
inhibition [24]: inactive
inhibition [25]: inactive
inhibition [26]: inactive
inhibition [27]: inactive
inhibition [28]: inactive
